Measured values reported in publication PMC11420776 (RSC Advances, 2024).

How the values were obtained:
A498 (renal cancer) = assay: NCI 60-cell one-dose antiproliferative screen; type: cell-based, human; conditions: one dose 10 μM
OVCAR-3 (ovarian cancer) = assay: NCI 60-cell one-dose antiproliferative screen; type: cell-based, human; conditions: one dose 10 μM
EKVX (NSC lung cancer) = assay: NCI 60-cell one-dose antiproliferative screen; type: cell-based, human; conditions: one dose 10 μM
OVCAR-5 (ovarian cancer) = assay: NCI 60-cell one-dose antiproliferative screen; type: cell-based, human; conditions: one dose 10 μM
UO-31 (renal cancer) = assay: NCI 60-cell one-dose antiproliferative screen; type: cell-based, human; conditions: one dose 10 μM
M14 (melanoma) = assay: NCI 60-cell one-dose antiproliferative screen; type: cell-based, human; conditions: one dose 10 μM
786-0 (renal cancer) = assay: NCI 60-cell one-dose antiproliferative screen; type: cell-based, human; conditions: one dose 10 μM
RXF 393 (renal cancer) = assay: NCI 60-cell one-dose antiproliferative screen; type: cell-based, human; conditions: one dose 10 μM
HCT-116 (colon cancer) = assay: NCI 60-cell one-dose antiproliferative screen; type: cell-based, human; conditions: one dose 10 μM
[1] = tested on: MDA-MB-231/ATCC (breast cancer); assay: NCI 60-cell one-dose antiproliferative screen; type: cell-based, human; conditions: one dose 10 μM
MDA-MB-435 (melanoma) = assay: NCI 60-cell one-dose antiproliferative screen; type: cell-based, human; conditions: one dose 10 μM
KM12 (colon cancer) = assay: NCI 60-cell one-dose antiproliferative screen; type: cell-based, human; conditions: one dose 10 μM
ACHN (renal cancer) = assay: NCI 60-cell one-dose antiproliferative screen; type: cell-based, human; conditions: one dose 10 μM
[2] = tested on: A549/ATCC (NSC lung cancer); assay: NCI 60-cell one-dose antiproliferative screen; type: cell-based, human; conditions: one dose 10 μM
SW-620 (colon cancer) = assay: NCI 60-cell one-dose antiproliferative screen; type: cell-based, human; conditions: one dose 10 μM
[3] = tested on: NCI/ADR-RES (ovarian cancer); assay: NCI 60-cell one-dose antiproliferative screen; type: cell-based, human; conditions: one dose 10 μM
[4] = tested on: NCI-H522 (NSC lung cancer); assay: NCI 60-cell one-dose antiproliferative screen; type: cell-based, human; conditions: one dose 10 μM
SNB-75 (CNS cancer) = assay: NCI 60-cell one-dose antiproliferative screen; type: cell-based, human; conditions: one dose 10 μM
[5] = tested on: NCI-H460 (NSC lung cancer); assay: NCI 60-cell one-dose antiproliferative screen; type: cell-based, human; conditions: one dose 10 μM
IGROV1 (ovarian cancer) = assay: NCI 60-cell one-dose antiproliferative screen; type: cell-based, human; conditions: one dose 10 μM
SK-OV-3 (ovarian cancer) = assay: NCI 60-cell one-dose antiproliferative screen; type: cell-based, human; conditions: one dose 10 μM
MCF7 (breast cancer) = assay: NCI 60-cell one-dose antiproliferative screen; type: cell-based, human; conditions: one dose 10 μM
SK-MEL-2 (melanoma) = assay: NCI 60-cell one-dose antiproliferative screen; type: cell-based, human; conditions: one dose 10 μM
PC-3 (prostate cancer) = assay: NCI 60-cell one-dose antiproliferative screen; type: cell-based, human; conditions: one dose 10 μM
RPMI-8226 (leukemia) = assay: NCI 60-cell one-dose antiproliferative screen; type: cell-based, human; conditions: one dose 10 μM
SF-539 (CNS cancer) = assay: NCI 60-cell one-dose antiproliferative screen; type: cell-based, human; conditions: one dose 10 μM
SNB-19 (CNS cancer) = assay: NCI 60-cell one-dose antiproliferative screen; type: cell-based, human; conditions: one dose 10 μM
HS 578T (breast cancer) = assay: NCI 60-cell one-dose antiproliferative screen; type: cell-based, human; conditions: one dose 10 μM
HOP-62 (NSC lung cancer) = assay: NCI 60-cell one-dose antiproliferative screen; type: cell-based, human; conditions: one dose 10 μM
SN12C (renal cancer) = assay: NCI 60-cell one-dose antiproliferative screen; type: cell-based, human; conditions: one dose 10 μM
[6] = tested on: NCI-H23 (NSC lung cancer); assay: NCI 60-cell one-dose antiproliferative screen; type: cell-based, human; conditions: one dose 10 μM
COLO-205 (colon cancer) = assay: NCI 60-cell one-dose antiproliferative screen; type: cell-based, human; conditions: one dose 10 μM
[7] = tested on: MDA-MB-468 (breast cancer); assay: NCI 60-cell one-dose antiproliferative screen; type: cell-based, human; conditions: one dose 10 μM
MALME-3M (melanoma) = assay: NCI 60-cell one-dose antiproliferative screen; type: cell-based, human; conditions: one dose 10 μM
HOP-92 (NSC lung cancer) = assay: NCI 60-cell one-dose antiproliferative screen; type: cell-based, human; conditions: one dose 10 μM
T-47D (breast cancer) = assay: NCI 60-cell one-dose antiproliferative screen; type: cell-based, human; conditions: one dose 10 μM
[8] = tested on: NCI-H322M (NSC lung cancer); assay: NCI 60-cell one-dose antiproliferative screen; type: cell-based, human; conditions: one dose 10 μM
[9] = tested on: 60 human tumor cell lines; assay: NCI 60-cell one-dose antiproliferative screen, whole panel; type: cell-based; conditions: Homo sapiens, 60 cell, read-out: Mean inhibition (mean GI%)
HCT-15 (colon cancer) = assay: NCI 60-cell one-dose antiproliferative screen; type: cell-based, human; conditions: one dose 10 μM
UACC-62 (melanoma) = assay: NCI 60-cell one-dose antiproliferative screen; type: cell-based, human; conditions: one dose 10 μM
CCRF-CEM (leukemia) = assay: NCI 60-cell one-dose antiproliferative screen; type: cell-based, human; conditions: one dose 10 μM
SF-295 (CNS cancer) = assay: NCI 60-cell one-dose antiproliferative screen; type: cell-based, human; conditions: one dose 10 μM
OVCAR-8 (ovarian cancer) = assay: NCI 60-cell one-dose antiproliferative screen; type: cell-based, human; conditions: one dose 10 μM
UACC-257 (melanoma) = assay: NCI 60-cell one-dose antiproliferative screen; type: cell-based, human; conditions: one dose 10 μM
[10] = tested on: NCI-H226 (NSC lung cancer); assay: NCI 60-cell one-dose antiproliferative screen; type: cell-based, human; conditions: one dose 10 μM
HCC-2998 (colon cancer) = assay: NCI 60-cell one-dose antiproliferative screen; type: cell-based, human; conditions: one dose 10 μM
OVCAR-4 (ovarian cancer) = assay: NCI 60-cell one-dose antiproliferative screen; type: cell-based, human; conditions: one dose 10 μM
LOX IMIV (melanoma) = assay: NCI 60-cell one-dose antiproliferative screen; type: cell-based, human; conditions: one dose 10 μM
CAKI-1 (renal cancer) = assay: NCI 60-cell one-dose antiproliferative screen; type: cell-based, human; conditions: one dose 10 μM
HT29 (colon cancer) = assay: NCI 60-cell one-dose antiproliferative screen; type: cell-based, human; conditions: one dose 10 μM
SF-268 (CNS cancer) = assay: NCI 60-cell one-dose antiproliferative screen; type: cell-based, human; conditions: one dose 10 μM
DU-145 (prostate cancer) = assay: NCI 60-cell one-dose antiproliferative screen; type: cell-based, human; conditions: one dose 10 μM
SK-MEL-28 (melanoma) = assay: NCI 60-cell one-dose antiproliferative screen; type: cell-based, human; conditions: one dose 10 μM
TK-10 (renal cancer) = assay: NCI 60-cell one-dose antiproliferative screen; type: cell-based, human; conditions: one dose 10 μM
U251 (CNS cancer) = assay: NCI 60-cell one-dose antiproliferative screen; type: cell-based, human; conditions: one dose 10 μM

SMILES: CN(C)c1ccc(C=NNc2ccc3nnc(-c4ccccc4)n3n2)cc1 [Compound 4c, N,N-Dimethyl-4-((2-(3-phenyl-[1,2,4]triazolo[4,3-b]pyridazin-6-yl)hydrazono)methyl)aniline]
- GI% (A498 (renal cancer)): — (— GI% is below 15%)
- GI% (OVCAR-3 (ovarian cancer)): 34.65%
- GI% (EKVX (NSC lung cancer)): 21.18%
- GI% (OVCAR-5 (ovarian cancer)): — (— GI% is below 15%)
- GI% (UO-31 (renal cancer)): 18.89%
- GI% (M14 (melanoma)): — (— GI% is below 15%)
- GI% (786-0 (renal cancer)): 18.27%
- GI% (RXF 393 (renal cancer)): 15.29%
- GI% (HCT-116 (colon cancer)): — (— GI% is below 15%)
- GI% [1]: — (— GI% is below 15%)
- GI% (MDA-MB-435 (melanoma)): — (— GI% is below 15%)
- GI% (KM12 (colon cancer)): 28.28%
- GI% (ACHN (renal cancer)): 21.61%
- GI% [2]: — (— GI% is below 15%)
- GI% (SW-620 (colon cancer)): — (— GI% is below 15%)
- GI% [3]: 55.19%
- GI% [4]: 40.80%
- GI% (SNB-75 (CNS cancer)): 65.40%
- GI% [5]: 18.89%
- GI% (IGROV1 (ovarian cancer)): — (— GI% is below 15%)
- GI% (SK-OV-3 (ovarian cancer)): — (— GI% is below 15%)
- GI% (MCF7 (breast cancer)): 34.47%
- GI% (SK-MEL-2 (melanoma)): — (— GI% is below 15%)
- GI% (PC-3 (prostate cancer)): 18.94%
- GI% (RPMI-8226 (leukemia)): — (— GI% is below 15%)
- GI% (SF-539 (CNS cancer)): — (— GI% is below 15%)
- GI% (SNB-19 (CNS cancer)): 30.50%
- GI% (HS 578T (breast cancer)): 33.19%
- GI% (HOP-62 (NSC lung cancer)): — (— GI% is below 15%)
- GI% (SN12C (renal cancer)): — (— GI% is below 15%)
- GI% [6]: 38.62%
- GI% (COLO-205 (colon cancer)): — (— GI% is below 15%)
- GI% [7]: — (— GI% is below 15%)
- GI% (MALME-3M (melanoma)): — (— GI% is below 15%)
- GI% (HOP-92 (NSC lung cancer)): 29.78%
- GI% (T-47D (breast cancer)): 22.66%
- GI% [8]: — (— GI% is below 15%)
- inhibition at 10 µM [9]: 17.7%
- GI% (HCT-15 (colon cancer)): 19.56%
- GI% (UACC-62 (melanoma)): — (— GI% is below 15%)
- GI% (CCRF-CEM (leukemia)): — (— GI% is below 15%)
- GI% (SF-295 (CNS cancer)): — (— GI% is below 15%)
- GI% (OVCAR-8 (ovarian cancer)): 57.57%
- GI% (UACC-257 (melanoma)): — (— GI% is below 15%)
- GI% [10]: — (— GI% is below 15%)
- GI% (HCC-2998 (colon cancer)): — (— GI% is below 15%)
- GI% (OVCAR-4 (ovarian cancer)): 41.36%
- GI% (LOX IMIV (melanoma)): 62.55%
- GI% (CAKI-1 (renal cancer)): 32.25%
- GI% (HT29 (colon cancer)): — (— GI% is below 15%)
- GI% (SF-268 (CNS cancer)): 57.96%
- GI% (DU-145 (prostate cancer)): 26.64%
- GI% (SK-MEL-28 (melanoma)): — (— GI% is below 15%)
- GI% (TK-10 (renal cancer)): — (— GI% is below 15%)
- GI% (U251 (CNS cancer)): 24.58%
